# Earlier results as cited in patent publication US20200057081A1, “System and Method for Managing Animal Cancers by Disabling the Cancer Cells Ability to Reproduce” (priority 2018, published 2020).
# pIC50: −log10 of the molar value.
# Columns and labels:
# [1] = system: cultured cancer cell lines; conditions: multiple cell lines
# [2] = system: cancer cells
# [3] = system: tumors transplanted to mice
# [4] = molecular target: Drp1/Fis1 interaction (Homo sapiens, UniProt O00429)
# [5] = molecular target: T1, dynamin GTPase (Homo sapiens, UniProt O00429); conditions: in mammalian cells; read-out: IC50, inhibition of mitochondrial division / dynamin GTPase activity
# T1 construct: host or cells: mammalian cells (not specified)
# [6] = system: mitochondria; conditions: Bid-activated, Bax/Bak-dependent, in vitro
# T1 sequence (O00429 whole entry): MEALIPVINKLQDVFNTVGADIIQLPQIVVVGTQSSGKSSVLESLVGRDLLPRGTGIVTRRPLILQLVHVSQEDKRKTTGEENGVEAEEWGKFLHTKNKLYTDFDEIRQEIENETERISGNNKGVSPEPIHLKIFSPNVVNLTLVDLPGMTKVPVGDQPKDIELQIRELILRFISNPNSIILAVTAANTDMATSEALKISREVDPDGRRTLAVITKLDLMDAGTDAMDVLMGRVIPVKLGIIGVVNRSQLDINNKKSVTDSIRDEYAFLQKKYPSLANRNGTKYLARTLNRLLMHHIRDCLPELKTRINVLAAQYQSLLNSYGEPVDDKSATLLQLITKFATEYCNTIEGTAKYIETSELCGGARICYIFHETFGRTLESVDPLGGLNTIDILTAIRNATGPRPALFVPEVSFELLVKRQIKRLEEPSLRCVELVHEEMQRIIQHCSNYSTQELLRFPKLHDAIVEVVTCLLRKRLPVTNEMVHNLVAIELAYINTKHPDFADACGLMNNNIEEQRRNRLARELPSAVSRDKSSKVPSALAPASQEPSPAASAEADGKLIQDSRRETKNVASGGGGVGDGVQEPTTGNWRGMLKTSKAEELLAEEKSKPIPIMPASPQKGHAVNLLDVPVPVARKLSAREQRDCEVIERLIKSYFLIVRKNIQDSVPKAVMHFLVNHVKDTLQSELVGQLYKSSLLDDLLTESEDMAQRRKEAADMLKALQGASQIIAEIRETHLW
# Sequence of Drp1/Fis1 interaction (O00429 whole entry): as above
compound,measurement,setting,value
CS(=O)(=O)c1ccc(C(=O)Nc2ccc(Cl)c(-c3ccccn3)c2)c(Cl)c1 [GDC-0449],anti-proliferative effect,[1],modest anti-proliferative effect
CN(C)c1ccc(C2Nc3ccc4ccccc4c3C3=C2C(=O)CC(C)(C)C3)cc1Br (stereo not shown) [compound 968],inhibition of cancer cell growth,[2]; cancer cells,highly specific for inhibiting cancer cell growth
same,effect on normal cells,[2]; normal (nontransformed) cells,little effect
Cc1ncc(C[n+]2csc(CCO)c2C)c(=O)[nH]1 [oxythiamine],tumor growth,[3],slow down the growth
CC1=C2C[C@H]3[C@@H](CC=C4C[C@@H](O)CC[C@@]43C)[C@@H]2CC[C@]12O[C@@H]1C[C@H](C)CN[C@H]1[C@H]2C [Cyc],anti-proliferative effect,[1],modest anti-proliferative effect
O=C(O)C(=O)CBr [3-bromopyruvate],tumor growth,[3],slow down the growth
"P110: polypeptide P110, DLLPRGT, inhibitor of Drp1",selectivity for Drp1/Fis1 interaction over Drp1 interaction with other ligands,[4],more selective for blocking Drp1/Fis1 interaction
C=C1CC[C@H](O)C/C1=C/C=C1\CCC[C@]2(C)[C@@H]([C@H](C)CCCC(C)C)CC[C@@H]12 [VD3],anti-proliferative effect,[1],modest anti-proliferative effect
COc1cc(-n2c(=S)[nH]c3ccccc3c2=O)c(Cl)cc1Cl [Mdivi 1],pIC50,[5],~4.30
same,cytochrome c release from mitochondria,[6],block Bid-activated Bax/Bak-dependent cytochrome c release
